# Tests used:
# Human FAAH = molecular target: T1, Human FAAH (Homo sapiens, UniProt O00519); experiment: Human FAAH assay; assay type: biochemical; settings: RG7774 10 µM; read-out: Mean ± SEM % inhibition of control, Human FAAH
# T1 construct: purchased Cayman Chemical Company
# Procedure: Mouse brain was homogenized in 50 mM Tris-HCl (pH 7.4) using a glass potter, centrifuged at 1000 g for 10 min, and the pellet was discarded. The supernatant (50 µg) was incubated with [^14C]-AEA (10 µM) (ARC, MO, USA) at 37°C for 15 min (Tris-HCl, pH 9.0) and reactions were stopped with a 2:1 (v/v) mixture of chloroform/methanol. [^14C]-ethanolamine release in the aqueous phase was measured as previously reported. Mouse supernatants (50 µg) were preincubated with RG7774 (10 µM) for 15 min and added directly to the incubation medium. Purified human FAAH (1.7 µg; Cayman Chemical Company, MI, USA) was incubated with [^14C]-AEA (10 µM) (ARC, MO, USA) at 37°C for 15 min (pH 9.0), as previously described. […] for 15 min with 8 different concentrations of RG7774 (0.1-500 µM) and added directly to the incubation medium (250 µL). Control experiments was carried out in the presence of the FAAH inhibitor, URB-597 (100 nM).
# Microsomal clearance = assay type: in vitro ADME; settings: pH 7.4
# Procedure: Commercially-available ultra-pooled microsome preparations from human (150 different donors) (BD UltraPool HLM 150, Beckton Dickinson, Japan) or mouse liver tissues (Beckton Dickinson) were incubated in 96-deep-well plates containing 0.1 M phosphate buffer (pH 7.4) at 37 °C on a TECAN liquid handling system equipped with Teleshake shakers and a warming device (Tecan Group Ltd., Switzerland). The NADPH regenerating system consisted of 30 mM glucose-6-phosphate disodium salt hydrate, 10 mM NADP, 30 mM MgCl2 × 6 H2O, and 5 mg/mL glucose-6-phosphate dehydrogenase (Roche Diagnostics, IN, USA) in 0.1 M potassium phosphate buffer (pH 7.4). The microsome mixture (0.5 mg/mL) was incubated with 1 μM RG7774 in 96-well plates at 37 °C. After 1, 3, 6, 9, 15, 25, 35, and 45 min, aliquots of the incubations (40 μL) were removed and reactions were quenched with 1:3 (v/v) acetonitrile containing internal standards. Samples were cooled, centrifuged, and analyzed by liquid chromatography-mass spectroscopy (LC-MS)/mass spectroscopy (MS). Log peak area ratios (test compound peak area/internal standard peak area) were plotted against incubation time with a linear fit. The calculated slope was used to determine the intrinsic clearance: CLint (μL/min/mg protein) = –slope (min–1) × 1000/protein concentration, mg/mL.
# [1] = tested on: LPS-induced vascular leakage; experiment: LPS-induced vascular permeability in mice with EIU (fluorophotometry); assay type: in vivo, C57Bl6/J mice
# Procedure: Twenty-four female C57Bl6/J mice, 10 weeks old and weighing 18–20 g (Charles River, Sulzfeld, Germany) were housed in individually ventilated GM500 cages (Tecniplast, Pontremoli, Italy) with a maximum density of n = 4 mice with the same litter and sex. The room was kept at 20°C–24°C with 50%–60% humidity and a 12/12 h light-dark cycle. Animals were held on a standard mouse diet with ad libitum access to food and water.
# Mice were anesthetized with isoflurane 3% in 100% O2, a drop of 1% Novesin 0.4% (Omnivision, Pucheim, Germany) and a drop of Tropicamide 1% w/v (Bausch + Lomb Incorporated, Kingston, United Kingdom). Eyes were subsequently cleaned with povidone iodine 5% Ophthalmic Prep Solution (Alcon, Geneva, Switzerland) and were immediately pre-punctured with a 30-gauge needle. Both eyes were injected with a single 1 µL IVT injection of 1 ng LPS (Sigma-Aldrich, St. Louis, MO, United States) or a single injection of Dulbecco’s phosphate buffered saline (PBS) (Fisher Scientific, Schwerte, Germany) (vehicle control) using a Nanofil syringe connected to a 34-gauge needle.
# Vehicle solution [w/w] was prepared using 0.1% hydroxyethyl cellulose, 1.0% polysorbate 80, 0.18% methylparaben, and 0.02% propylparaben in 10 mM citrate (pH 6.0). RG7774 (0.6 and 2.0 mg/mL) was added to freshly prepared vehicle, stirred on a magnetic stirrer for at least 15 min, and a volume of 5 mL/kg was administered directly to the stomach of each EIU mouse using a 1 mL syringe with an oral gavage needle. Gavage was performed twice daily (6 mg/kg/day BID and 20 mg/kg/day BID) on the evening and morning prior to LPS injection, on the evening after LPS injection, and on the morning before fluorophotometry.
# Mice were anesthetized 24 h after receiving LPS or vehicle control using subcutaneous (SC) injections of fentanyl 0.05 mg/kg, medetomidine 0.5 mg/kg, and midazolam 5 mg/kg. […] Fundus infrared and fundus fluorescein angiography (FFA) images of both eyes were recorded 30 min later using optical coherence tomography (OCT)/FFA (Spectralis HRA-OCT, Heidelberg Engineering, Heidelberg, Germany) with a 55° lens focused on the optic nerve with the optic disc in the center of the image to obtain sharp images of the fundus. […] The supernatant (10 µL) was diluted in 990 µL PBS in a microcuvette (PS Micro Photometer Cuvette 2 mL, 10 mm × 10 mm × 45 mm; LP Italiana, Milan, Italy) and samples were analyzed in duplicate using the FM-2 Fluorotron (450–490 nm excitation; 520–600 nm emission detection). […]
# To quantify fluorotron measurements, raw files were generated, exported as txt. files, and plotted using Microsoft Excel. The average area under the curve (AUC) was calculated for 5 steps in each of the regions of the scans corresponding to retina, vitreous, and anterior chamber peaks. […]
# T1 sequence (O00519 whole entry): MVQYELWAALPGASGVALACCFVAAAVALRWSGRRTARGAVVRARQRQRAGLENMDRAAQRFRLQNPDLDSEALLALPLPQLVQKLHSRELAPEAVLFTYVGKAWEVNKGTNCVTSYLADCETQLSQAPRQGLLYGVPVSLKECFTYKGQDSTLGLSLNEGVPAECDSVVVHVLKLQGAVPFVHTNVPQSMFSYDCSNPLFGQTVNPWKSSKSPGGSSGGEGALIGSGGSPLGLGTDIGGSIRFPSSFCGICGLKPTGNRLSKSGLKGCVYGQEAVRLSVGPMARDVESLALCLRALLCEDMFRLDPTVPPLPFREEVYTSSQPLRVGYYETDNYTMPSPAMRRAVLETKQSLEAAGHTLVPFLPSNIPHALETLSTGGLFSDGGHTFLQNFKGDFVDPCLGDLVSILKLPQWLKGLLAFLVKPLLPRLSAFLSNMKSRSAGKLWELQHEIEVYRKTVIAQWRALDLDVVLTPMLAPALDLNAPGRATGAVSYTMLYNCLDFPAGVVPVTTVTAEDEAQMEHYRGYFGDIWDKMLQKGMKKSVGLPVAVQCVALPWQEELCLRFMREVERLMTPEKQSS
smiles,measurement,setting,value
"Cn1nnnc1Cn1nnc2c(N3CC[C@H](O)C3)nc(C(C)(C)C)nc21 [RG7774, (S)-1-(5-tert-butyl-3-[(1-methyl-1H-tetrazol-5-yl)methyl]-3H-[1,2,3]triazolo[4,5-d]pyrimidin-7-yl)pyrrolidin-3-ol]",inhibition at 10 µM,Human FAAH,-5.2%
same,microsomal CLint at 1 µM,Microsomal clearance; human,21.7 µL/min/mg
same,microsomal CLint at 1 µM,"Microsomal clearance; mouse, mouse liver microsomes",15 µL/min/mg
same,microsomal CLint at 1 µM,"Microsomal clearance; rat, rat microsomes",25 µL/min/mg
same,reduction of LPS-induced vascular leakage in the retina versus vehicle control,[1]; 6 mg/kg/day oral BID,102%
same,reduction of LPS-induced vascular leakage in the vitreous,[1]; 6 mg/kg/day oral BID,74%
same,reduction of LPS-induced vascular leakage in the retina versus vehicle control,[1]; 20 mg/kg/day oral BID,106%
same,reduction of LPS-induced vascular leakage in the vitreous,[1]; 20 mg/kg/day oral BID,76%

# Reference: publication PMC11272598, “RG7774 (Vicasinabin), an orally bioavailable cannabinoid receptor 2 (CB2R) agonist, decreases retinal vascular permeability, leukocyte adhesion, and ocular inflammation in animal models” (Frontiers in Pharmacology, 2024)
